Measured values published in US20230398130A1, “METHODS AND COMPOSITIONS FOR DIFFERENTIATING STEM CELLS” (Massachusetts Institute of Technology, priority 2020, published 2023).

What was measured:
ISC-enriched organoids [1] = assay: Primary screen, 384-well 2.5-D organoid differentiation (ENR+CD, 6 days, Target Selective Inhibitor Library, vs whole-plate median): ATP (CellTiter-Glo 3D, CTG); details: for Dose.FC.CTG / Z.CTG / SSMD.CTG: primary screen; for Dose.FC.CTG: FC vs plate median; for Z.CTG: standard z score; for SSMD.CTG: strictly standardized mean difference; for Dose.FC.CTG (log 2 fold change, ATP): vs plate median
ISC-enriched organoids [2] = assay: Primary screen, 384-well 2.5-D organoid differentiation (ENR+CD, 6 days): carbachol-induced lysozyme secretion (LYZ.S); format: cell-based, murine; details: for Dose.FC.LYZ.S / Z.LYZ.S / SSMD.LYZ.S: primary screen; for Dose.FC.LYZ.S: FC vs plate median; for Z.LYZ.S: standard z score; for SSMD.LYZ.S: strictly standardized mean difference; for Dose.FC.LYZ.S (log 2 fold change, carbachol-induced lysozyme secretion): vs plate median
Excerpt: (§1) High-throughput screening.

ISC-enriched organoids [3] = assay: Primary screen, 384-well 2.5-D organoid differentiation (ENR+CD, 6 days): basal lysozyme secretion (LYZ.NS); format: cell-based, murine; details: for Dose.FC.LYZ.NS / Z.LYZ.NS / SSMD.LYZ.NS: primary screen; for Dose.FC.LYZ.NS: FC vs plate median; for Z.LYZ.NS: standard z score; for SSMD.LYZ.NS: strictly standardized mean difference; for Dose.FC.LYZ.NS (log 2 fold change, basal lysozyme secretion): vs plate median
Excerpt: as §1

[4] = 1st of the 4 dose lines of the treatment (dose not given)
[5] = 2nd of the 4 dose lines of the treatment (dose not given)
[6] = 3rd of the 4 dose lines of the treatment (dose not given)
[7] = 4th of the 4 dose lines of the treatment (dose not given)

Maraviroc
Dose.FC.CTG (ISC-enriched organoids [1]; Dose 0.08 uM): −0.084 log 2 fold change | Z.CTG (ISC-enriched organoids [1]; Dose 0.08 uM): −0.201 | Dose.FC.CTG (ISC-enriched organoids [1]; Dose 0.40 uM): 0.079 log 2 fold change | Z.CTG (ISC-enriched organoids [1]; Dose 0.40 uM): 0.188 | Dose.FC.CTG (ISC-enriched organoids [1]; Dose 2.00 uM): −0.009 log 2 fold change | Z.CTG (ISC-enriched organoids [1]; Dose 2.00 uM): −0.022 | Dose.FC.CTG (ISC-enriched organoids [1]; Dose 10.00 uM): 0.139 log 2 fold change | Z.CTG (ISC-enriched organoids [1]; Dose 10.00 uM): 0.331 | SSMD.CTG (ISC-enriched organoids [1]; [4]): −0.294 | SSMD.CTG (ISC-enriched organoids [1]; [5]): 0.187 | SSMD.CTG (ISC-enriched organoids [1]; [6]): −0.030 | SSMD.CTG (ISC-enriched organoids [1]; [7]): 0.270 | Dose.FC.LYZ.S (ISC-enriched organoids [2]; Dose 0.08 uM): 0.054 log 2 fold change | Dose.FC.LYZ.S (ISC-enriched organoids [2]; Dose 0.40 uM): 0.195 log 2 fold change | Dose.FC.LYZ.S (ISC-enriched organoids [2]; Dose 2.00 uM): 0.005 log 2 fold change | Dose.FC.LYZ.S (ISC-enriched organoids [2]; Dose 10.00 uM): 0.077 log 2 fold change | Z.LYZ.S (ISC-enriched organoids [2]; [4]): 0.350 | Z.LYZ.S (ISC-enriched organoids [2]; [5]): 1.262 | Z.LYZ.S (ISC-enriched organoids [2]; [6]): 0.034 | Z.LYZ.S (ISC-enriched organoids [2]; [7]): 0.495 | SSMD.LYZ.S (ISC-enriched organoids [2]; [4]): 0.262 | SSMD.LYZ.S (ISC-enriched organoids [2]; [5]): 0.754 | SSMD.LYZ.S (ISC-enriched organoids [2]; [6]): 0.028 | SSMD.LYZ.S (ISC-enriched organoids [2]; [7]): 0.400 | Dose.FC.LYZ.NS (ISC-enriched organoids [3]; Dose 0.08 uM): 0.047 log 2 fold change | Z.LYZ.NS (ISC-enriched organoids [3]; Dose 0.08 uM): 0.411 | Dose.FC.LYZ.NS (ISC-enriched organoids [3]; Dose 0.40 uM): 0.041 log 2 fold change | Z.LYZ.NS (ISC-enriched organoids [3]; Dose 0.40 uM): 0.358 | Dose.FC.LYZ.NS (ISC-enriched organoids [3]; Dose 2.00 uM): 0.031 log 2 fold change | Z.LYZ.NS (ISC-enriched organoids [3]; Dose 2.00 uM): 0.269 | Dose.FC.LYZ.NS (ISC-enriched organoids [3]; Dose 10.00 uM): 0.087 log 2 fold change | Z.LYZ.NS (ISC-enriched organoids [3]; Dose 10.00 uM): 0.759 | SSMD.LYZ.NS (ISC-enriched organoids [3]; [4]): 0.274 | SSMD.LYZ.NS (ISC-enriched organoids [3]; [5]): 0.365 | SSMD.LYZ.NS (ISC-enriched organoids [3]; [6]): 0.225 | SSMD.LYZ.NS (ISC-enriched organoids [3]; [7]): 0.547

VU 0364770
Z.CTG (standard z score) (ISC-enriched organoids [1]; dose 0.08 uM): 0.031 | Dose.FC.CTG (log 2 fold change, ATP) (ISC-enriched organoids [1]; dose 0.08 uM): 0.013 | Z.CTG (standard z score) (ISC-enriched organoids [1]; dose 0.40 uM): 0.204 | Dose.FC.CTG (log 2 fold change, ATP) (ISC-enriched organoids [1]; dose 0.40 uM): 0.085 | Z.CTG (standard z score) (ISC-enriched organoids [1]; dose 2.00 uM): 0.199 | Dose.FC.CTG (log 2 fold change, ATP) (ISC-enriched organoids [1]; dose 2.00 uM): 0.083 | Z.CTG (standard z score) (ISC-enriched organoids [1]; dose 10.00 uM): −0.246 | Dose.FC.CTG (log 2 fold change, ATP) (ISC-enriched organoids [1]; dose 10.00 uM): −0.103 | Dose.FC.LYZ.S (log 2 fold change, carbachol-induced lysozyme secretion) (ISC-enriched organoids [2]; dose 0.08 uM): 0.082 | Dose.FC.LYZ.S (log 2 fold change, carbachol-induced lysozyme secretion) (ISC-enriched organoids [2]; dose 0.40 uM): 0.125 | Dose.FC.LYZ.S (log 2 fold change, carbachol-induced lysozyme secretion) (ISC-enriched organoids [2]; dose 2.00 uM): 0.139 | Dose.FC.LYZ.S (log 2 fold change, carbachol-induced lysozyme secretion) (ISC-enriched organoids [2]; dose 10.00 uM): 0.066 | Z.LYZ.NS (standard z score) (ISC-enriched organoids [3]; dose 0.08 uM): 1.350 | Dose.FC.LYZ.NS (log 2 fold change, basal lysozyme secretion) (ISC-enriched organoids [3]; dose 0.08 uM): 0.155 | Z.LYZ.NS (standard z score) (ISC-enriched organoids [3]; dose 0.40 uM): 0.736 | Dose.FC.LYZ.NS (log 2 fold change, basal lysozyme secretion) (ISC-enriched organoids [3]; dose 0.40 uM): 0.085 | Z.LYZ.NS (standard z score) (ISC-enriched organoids [3]; dose 2.00 uM): 1.020 | Dose.FC.LYZ.NS (log 2 fold change, basal lysozyme secretion) (ISC-enriched organoids [3]; dose 2.00 uM): 0.117 | Z.LYZ.NS (standard z score) (ISC-enriched organoids [3]; dose 10.00 uM): 0.884 | Dose.FC.LYZ.NS (log 2 fold change, basal lysozyme secretion) (ISC-enriched organoids [3]; dose 10.00 uM): 0.102

C[C@H](NC(=O)[C@@H](O)c1cc(F)cc(F)c1)C(=O)N[C@@H]1C(=O)N(C)c2ccccc2-c2ccccc21 [LY411575]
Dose.FC.CTG (ISC-enriched organoids [1]; Dose 0.08 uM): 0.035 log 2 fold change | Z.CTG (ISC-enriched organoids [1]; Dose 0.08 uM): 0.083 | Dose.FC.CTG (ISC-enriched organoids [1]; Dose 0.40 uM): −0.172 log 2 fold change | Z.CTG (ISC-enriched organoids [1]; Dose 0.40 uM): −0.411 | Dose.FC.CTG (ISC-enriched organoids [1]; Dose 2.00 uM): −0.172 log 2 fold change | Z.CTG (ISC-enriched organoids [1]; Dose 2.00 uM): −0.412 | Dose.FC.CTG (ISC-enriched organoids [1]; Dose 10.00 uM): −0.259 log 2 fold change | Z.CTG (ISC-enriched organoids [1]; Dose 10.00 uM): −0.618 | SSMD.CTG (ISC-enriched organoids [1]; [4]): 0.086 | SSMD.CTG (ISC-enriched organoids [1]; [5]): −0.312 | SSMD.CTG (ISC-enriched organoids [1]; [6]): −0.389 | SSMD.CTG (ISC-enriched organoids [1]; [7]): −0.550 | Dose.FC.LYZ.S (ISC-enriched organoids [2]; Dose 0.08 uM): 0.024 log 2 fold change | Dose.FC.LYZ.S (ISC-enriched organoids [2]; Dose 0.40 uM): 0.041 log 2 fold change | Dose.FC.LYZ.S (ISC-enriched organoids [2]; Dose 2.00 uM): −0.091 log 2 fold change | Dose.FC.LYZ.S (ISC-enriched organoids [2]; Dose 10.00 uM): −0.157 log 2 fold change | Z.LYZ.S (ISC-enriched organoids [2]; [4]): 0.155 | Z.LYZ.S (ISC-enriched organoids [2]; [5]): 0.266 | Z.LYZ.S (ISC-enriched organoids [2]; [6]): −0.590 | Z.LYZ.S (ISC-enriched organoids [2]; [7]): −1.015 | SSMD.LYZ.S (ISC-enriched organoids [2]; [4]): 0.094 | SSMD.LYZ.S (ISC-enriched organoids [2]; [5]): 0.171 | SSMD.LYZ.S (ISC-enriched organoids [2]; [6]): −0.596 | SSMD.LYZ.S (ISC-enriched organoids [2]; [7]): −0.917 | Dose.FC.LYZ.NS (ISC-enriched organoids [3]; Dose 0.08 uM): 0.040 log 2 fold change | Z.LYZ.NS (ISC-enriched organoids [3]; Dose 0.08 uM): 0.347 | Dose.FC.LYZ.NS (ISC-enriched organoids [3]; Dose 0.40 uM): −0.050 log 2 fold change | Z.LYZ.NS (ISC-enriched organoids [3]; Dose 0.40 uM): −0.434 | Dose.FC.LYZ.NS (ISC-enriched organoids [3]; Dose 2.00 uM): −0.069 log 2 fold change | Z.LYZ.NS (ISC-enriched organoids [3]; Dose 2.00 uM): −0.598 | Dose.FC.LYZ.NS (ISC-enriched organoids [3]; Dose 10.00 uM): −0.109 log 2 fold change | Z.LYZ.NS (ISC-enriched organoids [3]; Dose 10.00 uM): −0.949 | SSMD.LYZ.NS (ISC-enriched organoids [3]; [4]): 0.217 | SSMD.LYZ.NS (ISC-enriched organoids [3]; [5]): −0.432 | SSMD.LYZ.NS (ISC-enriched organoids [3]; [6]): −0.593 | SSMD.LYZ.NS (ISC-enriched organoids [3]; [7]): −0.931
